Measured values reported in patent US20140357713A1, “ANTIMICROBIAL COMPOUNDS AND METHODS OF USE” (NexMed Holdings, Inc., priority 2012, published 2014).
≈ marks a conversion by molar mass, not a printed value. Read-outs that look alike come from different tables or passages of the source.

How the values were obtained:
Experiment in all cases: Minimum inhibitory concentration (MIC) assay, Example 33
[1] = tested on: Staphulococcus aureus (ATCC 29213); format: cell-based, Staphylococcus aureus; details: Staphylococcus aureus, read-out: MIC S. aureus
Experimental: (§1) Thirty compounds were tested for antimicrobial activity using standard procedures and standard strains for both the minimum inhibitory concentration (MIC) assay and a time kill study. Both the MIC assay and the time kill study were performed according to Clinical and Laboratory Standards Institute (CLSI) guidelines. Three bacteria strains, Escherichia coli (ATCC 25922), Pseudomonas aeruginosa (ATCC 27853), Staphulococcus aureus (ATCC 29213), and two fungus strains, Candida albicans (ATCC 90029) and Aspergillus niger (CMCC 98003), were used in the experiments.
(§2) Preparation of cultures. Before the experiment, two days for the bacteria strains and five days for fungus strains, an aliquot was removed from the cultures frozen at −80° C. Medium was added to the surface of an appropriate agar plate and streaked with the aliquot. The plate was incubated for 20 to 24 hrs at 35±2° C. for bacteria or for 5 days at 26-30° C. in incubator for fungus. From the resulting growth on each plate, one isolated colony of similar morphology was selected and re-streaked onto a fresh agar plate using a sterile disposable loop. The plate was incubated 20 to 24 hrs at 35±2° C. or for 5 days at 26-30° C. in an incubator.
(§3) Preparation of Assay Plates with Medium and Drugs. On the day of the assay, CAMHB medium or RPMI 1640 medium was removed from 4′C storage and allowed to reach room temperature. Ninety microliters (μL) of room temperature CAMHB or RPMI 1640 (supplemented with the appropriate concentration of DMSO, if required) were added to rows B-G of each 96-well microtiter plate. Using a pipette, duplicate 180 μL aliquots of each drug stock solution were added to column 1 (e.g. A1 and B1 or C1 and D1 or E1 and F1 or G1 and H1). Using a multichannel pipette or the Provision 2000 liquid handler, serial 2-fold dilutions (90 μL) were performed in each row across the plate to row G. Eighty μL of compounds dilutions were transferred to a 96-deep well plate. Medium, 1,520 μL of CAMHB or RPMI 1640, was added to each well. The contents of the wells were mixed thoroughly. A 50 μL aliquot of each of the resulting mixtures was transferred to a 96-well assay plate.
(§4) For bacteria, a sterile inoculating loop was used to transfer growth from an agar plate culture into about 5 mL of test medium. Using a turbidity meter, this inoculum was adjusted so that its density (600 nm) was equivalent to a 0.5 McFarland barium sulfate standard (0.08-0.13). The resulting suspension was diluted 1:100 into medium to obtain two times test inoculums.
(§5) For Aspergillus niger, sporulating colonies were covered with RPMI 1640, and a suspension was prepared by gently probing the colonies with the tip of a transfer pipette. The suspension was transferred to a sterile tube and mixed with a vortex mixer for 15 seconds. The densities at 530 nm were adjusted to 0.09-0.13 for each sample. The resulting suspension was diluted 1:50 with the medium to obtain two times test inoculums. Fifty μL/well of this inoculum suspension was added to wells of drug-containing plates (1:2 dilution). Plates were incubated at 35° C. for the appropriate times. The MIC was read and recorded according to CLSI guidelines.
(§6) The MIC values for thirty compounds against Escherichia coli, Pseudomonas aeruginosa, Staphulococcus aureus, Candida albicans, and Aspergillus niger were recorded and are presented in Table 3 and Table 4.

[2] = tested on: Pseudomonas aeruginosa (ATCC 27853); format: cell-based; details: Pseudomonas aeruginosa, read-out: MIC P. aeruginosa
Experimental: as §1, §2, §3, §4, §5, §6

[3] = tested on: Escherichia coli (ATCC 25922); format: cell-based; details: Escherichia coli, read-out: MIC E. coli
Experimental: as §1, §2, §3, §4, §5, §6

[4] = tested on: Aspergillus niger (CMCC 98003); format: cell-based
Experimental: as §1, §2, §3, §5, §6

[5] = tested on: Candida albicans (ATCC 90029); format: cell-based
Experimental: as §1, §2, §3
For Candida albicans, a sterile inoculating loop was used to transfer growth from an agar plate culture into a tube with RPMI1640 medium. This inoculum was adjusted so that its density at 530 nm was in the ranges from 0.08 to 0.13. The resulting suspension was diluted 1:50 and further diluted 1:20 with the medium to obtain two times test inoculums.
as §5, §6

NCC[C@H](O)C(=O)N[C@@H]1C[C@H](N)[C@@H](O[C@H]2O[C@H](CN)[C@@H](O)[C@H](O)[C@H]2O)[C@H](O)[C@H]1O[C@H]1O[C@H](CO)[C@@H](O)[C@H](N)[C@H]1O [Amikacin, reference compound]
MIC ([1]; ATCC29213, n = 1): 2 µg/mL (≈ 3.42 µM)
MIC ([1]; ATCC29213, n = 2): 2 µg/mL (≈ 3.42 µM)
MIC ([2]; ATCC27853, n = 1): 2 µg/mL (≈ 3.42 µM)
MIC ([2]; ATCC27853, n = 2): 2 µg/mL (≈ 3.42 µM)
MIC ([3]; ATCC25922, n = 1): 2 µg/mL (≈ 3.42 µM)
MIC ([3]; ATCC25922, n = 2): 2 µg/mL (≈ 3.42 µM)

C[C@@H]1[C@H](O)[C@@H](C)/C=C/C=C/C=C/C=C/C=C/C=C/C=C/[C@H](O[C@@H]2O[C@H](C)[C@@H](O)[C@H](N)[C@@H]2O)C[C@@H]2O[C@](O)(C[C@@H](O)C[C@@H](O)[C@H](O)CC[C@@H](O)C[C@@H](O)CC(=O)O[C@H]1C)C[C@H](O)[C@H]2C(=O)O [Amphotericin B, reference compound]
MIC Aspergillus niger ([4]; n = 1): 2000 µg/mL (≈ 2160 µM)
MIC Aspergillus niger ([4]; n = 2): 2000 µg/mL (≈ 2160 µM)
MIC Candida albicans ([5]; n = 1): 0.5 µg/mL (≈ 0.541 µM)
MIC Candida albicans ([5]; n = 2): 0.5 µg/mL (≈ 0.541 µM)

CC(C)(O/N=C(\C(=O)N[C@@H]1C(=O)N2C(C(=O)[O-])=C(C[n+]3ccccc3)CS[C@H]12)c1csc(N)n1)C(=O)O [Ceftazidime, reference compound]
MIC ([1]; ATCC29213, n = 1): 8 µg/mL (≈ 14.6 µM)
MIC ([1]; ATCC29213, n = 2): 16 µg/mL (≈ 29.3 µM)
MIC ([2]; ATCC27853, n = 1): 2 µg/mL (≈ 3.66 µM)
MIC ([2]; ATCC27853, n = 2): 2 µg/mL (≈ 3.66 µM)
MIC ([3]; ATCC25922, n = 1): 0.5 µg/mL (≈ 0.915 µM)
MIC ([3]; ATCC25922, n = 2): 0.5 µg/mL (≈ 0.915 µM)
